Data published in the NIST ThermoML archive (doi:10.1016/j.jct.2008.10.010).

Assay: molar heat capacity at constant pressure; xn = mol fraction of the nth substance listed
Settings: 101.3 kPa, Liquid, Small sample (50 mg) DSC

CCC(C)(C)O [2-methylbutan-2-ol] + CCCCCCC
Settings | molar heat capacity at constant pressure [J/K/mol]
292.14 K, x1 = 0.9609 | 240.86
292.16 K, x1 = 0.0249 | 228.51
293.14 K, x1 = 0.0061 | 223.05
293.14 K, x1 = 0.0249 | 228.85
293.14 K, x1 = 0.0494 | 233.49
293.14 K, x1 = 0.1 | 238.13
293.14 K, x1 = 0.1547 | 240.82
293.14 K, x1 = 0.1999 | 242.32
293.14 K, x1 = 0.2993 | 244.48
293.14 K, x1 = 0.4051 | 245.2
293.14 K, x1 = 0.4986 | 245.35
293.14 K, x1 = 0.5981 | 245.12
293.14 K, x1 = 0.7015 | 244.38
293.14 K, x1 = 0.8023 | 243.13
293.14 K, x1 = 0.9139 | 242.22
293.14 K, x1 = 0.9609 | 241.95
294.15 K, x1 = 0.0061 | 223.39
294.15 K, x1 = 0.0249 | 229.18
294.15 K, x1 = 0.0494 | 233.86
294.15 K, x1 = 0.1 | 238.71
294.15 K, x1 = 0.1547 | 241.58
294.15 K, x1 = 0.1999 | 243.15
294.15 K, x1 = 0.2993 | 245.43
294.15 K, x1 = 0.4051 | 246.27
294.15 K, x1 = 0.4986 | 246.46
294.15 K, x1 = 0.5981 | 246.23
294.15 K, x1 = 0.7015 | 245.52
294.15 K, x1 = 0.8023 | 244.34
294.15 K, x1 = 0.9139 | 243.38
294.15 K, x1 = 0.9609 | 243.11
295.14 K, x1 = 0.0061 | 223.7
295.14 K, x1 = 0.0249 | 229.37
295.14 K, x1 = 0.0494 | 234.25
295.14 K, x1 = 0.1 | 239.22
295.14 K, x1 = 0.1547 | 242.31
295.14 K, x1 = 0.1999 | 243.96
295.14 K, x1 = 0.2993 | 246.32
295.14 K, x1 = 0.4051 | 247.28
295.14 K, x1 = 0.4986 | 247.54
295.14 K, x1 = 0.5981 | 247.38
295.14 K, x1 = 0.7015 | 246.7
295.14 K, x1 = 0.8023 | 245.54
295.14 K, x1 = 0.9139 | 244.5
295.14 K, x1 = 0.9609 | 244.22
296.14 K, x1 = 0.0061 | 223.96
296.14 K, x1 = 0.0249 | 229.63
296.14 K, x1 = 0.0494 | 234.59
296.14 K, x1 = 0.1 | 239.76
296.14 K, x1 = 0.1547 | 242.94
296.14 K, x1 = 0.1999 | 244.6
296.14 K, x1 = 0.2993 | 247.2
296.14 K, x1 = 0.4051 | 248.27
296.14 K, x1 = 0.4986 | 248.61
296.14 K, x1 = 0.5981 | 248.5
296.14 K, x1 = 0.7015 | 247.88
296.14 K, x1 = 0.8023 | 246.68
296.14 K, x1 = 0.9139 | 245.64
296.14 K, x1 = 0.9609 | 245.31
297.15 K, x1 = 0.0061 | 224.33
297.15 K, x1 = 0.0249 | 229.81
297.15 K, x1 = 0.0494 | 235.01
297.15 K, x1 = 0.1 | 240.36
297.15 K, x1 = 0.1547 | 243.63
297.15 K, x1 = 0.1999 | 245.46
297.15 K, x1 = 0.2993 | 248.18
297.15 K, x1 = 0.4051 | 249.33
297.15 K, x1 = 0.4986 | 249.76
297.15 K, x1 = 0.5981 | 249.72
297.15 K, x1 = 0.7015 | 249.04
297.15 K, x1 = 0.8023 | 247.89
297.15 K, x1 = 0.9139 | 246.86
297.15 K, x1 = 0.9609 | 246.4
298.14 K, x1 = 0.0061 | 224.65
298.14 K, x1 = 0.0249 | 230.08
298.14 K, x1 = 0.0494 | 235.35
298.14 K, x1 = 0.1 | 240.89
298.14 K, x1 = 0.1547 | 244.27
298.14 K, x1 = 0.1999 | 246.18
298.14 K, x1 = 0.2993 | 249.05
298.14 K, x1 = 0.4051 | 250.35
298.14 K, x1 = 0.4986 | 250.83
298.14 K, x1 = 0.5981 | 250.81
298.14 K, x1 = 0.7015 | 250.24
298.14 K, x1 = 0.8023 | 249.08
298.14 K, x1 = 0.9139 | 247.97
298.14 K, x1 = 0.9609 | 247.48
298.16 K, x1 = 0.0061 | 224.66
298.16 K, x1 = 0.0249 | 230.09
298.16 K, x1 = 0.0494 | 235.36
298.16 K, x1 = 0.1 | 240.91
298.16 K, x1 = 0.1547 | 244.3
298.16 K, x1 = 0.1999 | 246.2
298.16 K, x1 = 0.2993 | 249.07
298.16 K, x1 = 0.4051 | 250.39
298.16 K, x1 = 0.4986 | 250.87
298.16 K, x1 = 0.5981 | 250.84
298.16 K, x1 = 0.7015 | 250.29
298.16 K, x1 = 0.8023 | 249.11
298.16 K, x1 = 0.9139 | 248
298.16 K, x1 = 0.9609 | 247.52
299.14 K, x1 = 0.0061 | 224.99
299.14 K, x1 = 0.0249 | 230.35
299.14 K, x1 = 0.0494 | 235.67
299.14 K, x1 = 0.1 | 241.48
299.14 K, x1 = 0.1547 | 244.98
299.14 K, x1 = 0.1999 | 246.99
299.14 K, x1 = 0.2993 | 249.97
299.14 K, x1 = 0.4051 | 251.31
299.14 K, x1 = 0.4986 | 251.91
299.14 K, x1 = 0.5981 | 251.9
299.14 K, x1 = 0.7015 | 251.35
299.14 K, x1 = 0.8023 | 250.25
299.14 K, x1 = 0.9139 | 249.1
299.14 K, x1 = 0.9609 | 248.6
300.15 K, x1 = 0.0061 | 225.26
300.15 K, x1 = 0.0249 | 230.51
300.15 K, x1 = 0.0494 | 236
300.15 K, x1 = 0.1 | 241.9
300.15 K, x1 = 0.1547 | 245.57
300.15 K, x1 = 0.1999 | 247.7
300.15 K, x1 = 0.2993 | 250.81
300.15 K, x1 = 0.4051 | 252.27
300.15 K, x1 = 0.4986 | 252.92
300.15 K, x1 = 0.5981 | 253
